The text below walks through data of the supplement of paper PMC10307832.

What all share (assay): relative viability (nuclei count vs DMSO), 5 days (fraction); higher = more cells survive
Compound in the test “Midostaurin + Dasatinib”: CO[C@@H]1[C@H](N(C)C(=O)c2ccccc2)C[C@H]2O[C@]1(C)n1c3ccccc3c3c4c(c5c6ccccc6n2c5c31)C(=O)NC4 [Midostaurin] + Cc1nc(Nc2ncc(C(=O)Nc3c(C)cccc3Cl)s2)cc(N2CCN(CCO)CC2)n1 [Dasatinib] (partner 0.075 µM)
In outline: (§1)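 Lung cancer cell lines in 1536-well plates got either a single drug or a fixed anchor-drug dose together with five library-drug doses (not always all listed) in √10 steps, by pin tool, on the day after seeding. Nuclei were counted after 5 days, and relative viability is the treated-to-vehicle ratio of nuclei counts. Values are medians of duplicate plates.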

Compound in the test “Midostaurin + Olaparib”: CO[C@@H]1[C@H](N(C)C(=O)c2ccccc2)C[C@H]2O[C@]1(C)n1c3ccccc3c3c4c(c5c6ccccc6n2c5c31)C(=O)NC4 [Midostaurin] + O=C(c1cc(Cc2n[nH]c(=O)c3ccccc23)ccc1F)N1CCN(C(=O)C2CC2)CC1 [Olaparib] (partner 8 µM)
In outline:
as §1

Compound in test [1]: COc1cc(-c2nn([C@H]3CC[C@H](N4CCN(C(C)=O)CC4)CC3)c3ncnc(N)c23)ccc1NC(=O)c1cc2ccccc2n1C + CC(=O)Nc1cccc(-n2c(=O)n(C3CC3)c(=O)c3c(Nc4ccc(I)cc4F)n(C)c(=O)c(C)c32)c1 [Trametinib] (partner 0.02 µM)
In outline: as §1

Compound in test [2]: COc1cc(-c2nn([C@H]3CC[C@H](N4CCN(C(C)=O)CC4)CC3)c3ncnc(N)c23)ccc1NC(=O)c1cc2ccccc2n1C + COc1cccc2cc(-c3nc([C@H]4CC[C@H](C(=O)O)CC4)n4ncnc(N)c34)[nH]c12 [OSI-027] (partner 0.5 µM)
In outline: as §1

Compound in test [3]: COc1cc(-c2nn([C@H]3CC[C@H](N4CCN(C(C)=O)CC4)CC3)c3ncnc(N)c23)ccc1NC(=O)c1cc2ccccc2n1C + C[C@@H](Oc1cc(-c2cnn(C3CCNCC3)c2)cnc1N)c1c(Cl)ccc(F)c1Cl [Crizotinib] (partner 1 µM)
In outline: as §1

Take SW 1573: the relative viability with Midostaurin + Dasatinib (first compound 0.01 µM) is 0.534; with Midostaurin + Dasatinib (first compound 0.03162 µM), 0.548; in the test with Midostaurin + Dasatinib (first compound 0.1 µM), 0.456; in the test with Midostaurin + Dasatinib (first compound 0.3162 µM) it was 0.161; in the test with Midostaurin + Olaparib (first compound 0.01 µM), 0.503; in the test with Midostaurin + Olaparib (first compound 0.03162 µM), 0.547. Moreover, the relative viability with Midostaurin + Olaparib (first compound 0.1 µM) is 0.403; in the test with Midostaurin + Olaparib (first compound 0.3162 µM), 0.249; in test [1] (first compound 0.0128 µM), 0.52; in test [1] (first compound 0.04048 µM), 0.556; in test [1] (first compound 0.128 µM) it was 0.492; in test [1] (first compound 1.28 µM), 0.477. In addition, the relative viability in test [2] (first compound 0.0128 µM) amounted to 0.68; in test [2] (first compound 0.04048 µM), 0.691; in test [2] (first compound 0.128 µM) it was 0.624; in test [2] (first compound 1.28 µM) it was 0.466; in test [3] (first compound 0.0128 µM) it was 0.775; in test [3] (first compound 0.04048 µM), 0.703. For the same cell line, the relative viability in test [3] (first compound 0.128 µM) was found to be 0.636; in test [3] (first compound 1.28 µM), 0.652.
For NCI-H2347, the relative viability is 0.328 with Midostaurin + Dasatinib (first compound 0.01 µM); 0.305 with Midostaurin + Dasatinib (first compound 0.03162 µM); 0.281 with Midostaurin + Dasatinib (first compound 0.1 µM); 0.327 with Midostaurin + Dasatinib (first compound 0.3162 µM); 0.602 in the test with Midostaurin + Olaparib (first compound 0.01 µM); 0.54 in the test with Midostaurin + Olaparib (first compound 0.03162 µM). In addition, the relative viability in the test with Midostaurin + Olaparib (first compound 0.1 µM) stood at 0.424; in the test with Midostaurin + Olaparib (first compound 0.3162 µM), 0.519; in test [1] (first compound 0.0128 µM), 0.292; in test [1] (first compound 0.04048 µM), 0.236; in test [1] (first compound 0.128 µM) it was 0.263; in test [1] (first compound 1.28 µM) it was 0.225. Further, the relative viability was 0.406 in test [2] (first compound 0.0128 µM); 0.434 in test [2] (first compound 0.128 µM); 0.418 in test [2] (first compound 1.28 µM); 0.795 in test [3] (first compound 0.0128 µM); 0.751 in test [3] (first compound 0.04048 µM); 0.797 in test [3] (first compound 0.128 µM). Besides, the relative viability in test [3] (first compound 1.28 µM) came out at 0.736.
For the cell line NCI-H2009, the relative viability with Midostaurin + Dasatinib (first compound 0.01 µM) came to 0.33; with Midostaurin + Dasatinib (first compound 0.03162 µM), 0.268; with Midostaurin + Dasatinib (first compound 0.1 µM), 0.254; with Midostaurin + Dasatinib (first compound 0.3162 µM), 0.21; with Midostaurin + Olaparib (first compound 0.01 µM), 0.696; with Midostaurin + Olaparib (first compound 0.03162 µM), 0.668. For the same cell line, the relative viability is 0.611 in the test with Midostaurin + Olaparib (first compound 0.1 µM); 0.512 in the test with Midostaurin + Olaparib (first compound 0.3162 µM); 0.251 in test [1] (first compound 0.0128 µM); 0.252 in test [1] (first compound 0.04048 µM); 0.236 in test [1] (first compound 0.128 µM); 0.195 in test [1] (first compound 1.28 µM). Further, the relative viability in test [2] (first compound 0.0128 µM) was determined as 0.618; in test [2] (first compound 0.04048 µM) it was 0.463; in test [2] (first compound 0.128 µM) it was 0.635; in test [2] (first compound 1.28 µM) it was 0.54; in test [3] (first compound 0.0128 µM), 1.09; in test [3] (first compound 0.04048 µM), 0.94. In addition, the relative viability in test [3] (first compound 0.128 µM) came to 1.04; in test [3] (first compound 1.28 µM) it was 0.906.
Turning to HCC-15, the relative viability was 0.735 in the test with Midostaurin + Dasatinib (first compound 0.01 µM); 0.655 in the test with Midostaurin + Dasatinib (first compound 0.03162 µM); 0.657 with Midostaurin + Dasatinib (first compound 0.1 µM); 0.635 with Midostaurin + Dasatinib (first compound 0.3162 µM); 0.747 with Midostaurin + Olaparib (first compound 0.01 µM); 0.734 in the test with Midostaurin + Olaparib (first compound 0.03162 µM). The relative viability was determined as 0.678 with Midostaurin + Olaparib (first compound 0.1 µM); 0.641 with Midostaurin + Olaparib (first compound 0.3162 µM); 0.421 in test [1] (first compound 0.0128 µM); 0.269 in test [1] (first compound 0.04048 µM); 0.394 in test [1] (first compound 0.128 µM); 0.294 in test [1] (first compound 1.28 µM). Also, the relative viability was 0.832 in test [2] (first compound 0.0128 µM); 0.463 in test [2] (first compound 0.04048 µM); 0.616 in test [2] (first compound 0.128 µM); 0.586 in test [2] (first compound 1.28 µM); 0.89 in test [3] (first compound 0.0128 µM); 0.772 in test [3] (first compound 0.04048 µM). For the same cell line, the relative viability in test [3] (first compound 0.128 µM) turned out to be 0.808; in test [3] (first compound 1.28 µM), 0.67.
With COR-L23, the relative viability with Midostaurin + Dasatinib (first compound 0.01 µM) came out at 0.436; with Midostaurin + Dasatinib (first compound 0.03162 µM) it was 0.455; with Midostaurin + Dasatinib (first compound 0.1 µM), 0.368; with Midostaurin + Dasatinib (first compound 0.3162 µM) it was 0.27; with Midostaurin + Olaparib (first compound 0.01 µM) it was 0.386; in the test with Midostaurin + Olaparib (first compound 0.03162 µM), 0.269. Moreover, the relative viability with Midostaurin + Olaparib (first compound 0.1 µM) amounted to 0.279; with Midostaurin + Olaparib (first compound 0.3162 µM), 0.255; in test [1] (first compound 0.0128 µM), 0.585; in test [1] (first compound 0.04048 µM), 0.25; in test [1] (first compound 0.128 µM), 0.564; in test [1] (first compound 1.28 µM) it was 0.592. Further, the relative viability in test [2] (first compound 0.0128 µM) was found to be 0.753; in test [2] (first compound 0.04048 µM) it was 0.752; in test [2] (first compound 0.128 µM), 0.71; in test [2] (first compound 1.28 µM), 0.672; in test [3] (first compound 0.0128 µM) it was 0.59; in test [3] (first compound 0.04048 µM), 0.845. For the same cell line, the relative viability is 0.675 in test [3] (first compound 0.128 µM) and 0.602 in test [3] (first compound 1.28 µM).
For HCC-78, the relative viability in the test with Midostaurin + Dasatinib (first compound 0.01 µM) is 0.375; with Midostaurin + Dasatinib (first compound 0.03162 µM), 0.371; with Midostaurin + Dasatinib (first compound 0.1 µM), 0.373; with Midostaurin + Dasatinib (first compound 0.3162 µM), 0.219; with Midostaurin + Olaparib (first compound 0.01 µM) it was 0.836; with Midostaurin + Olaparib (first compound 0.03162 µM), 0.753. The relative viability with Midostaurin + Olaparib (first compound 0.1 µM) is 0.677; in the test with Midostaurin + Olaparib (first compound 0.3162 µM) it was 0.511; in test [1] (first compound 0.0128 µM), 0.851; in test [1] (first compound 0.04048 µM), 0.536; in test [1] (first compound 0.128 µM) it was 0.776; in test [1] (first compound 1.28 µM) it was 0.453. Further, the relative viability is 0.341 in test [2] (first compound 0.0128 µM); 0.371 in test [2] (first compound 0.04048 µM); 0.356 in test [2] (first compound 0.128 µM); 0.26 in test [2] (first compound 1.28 µM); 0.338 in test [3] (first compound 0.0128 µM); 0.432 in test [3] (first compound 0.04048 µM). Also, the relative viability was 0.325 in test [3] (first compound 0.128 µM) and 0.18 in test [3] (first compound 1.28 µM).
For NCI-H727, the relative viability in the test with Midostaurin + Dasatinib (first compound 0.01 µM) amounted to 0.363; with Midostaurin + Dasatinib (first compound 0.03162 µM), 0.41; with Midostaurin + Dasatinib (first compound 0.1 µM), 0.462; in the test with Midostaurin + Dasatinib (first compound 0.3162 µM) it was 0.383; with Midostaurin + Olaparib (first compound 0.01 µM) it was 0.659; in the test with Midostaurin + Olaparib (first compound 0.03162 µM) it was 0.62. The relative viability worked out at 0.628 with Midostaurin + Olaparib (first compound 0.1 µM); 0.68 with Midostaurin + Olaparib (first compound 0.3162 µM); 0.415 in test [1] (first compound 0.0128 µM); 0.37 in test [1] (first compound 0.128 µM); 0.341 in test [1] (first compound 1.28 µM); 0.591 in test [2] (first compound 0.0128 µM). Further, the relative viability was 0.477 in test [2] (first compound 0.128 µM); 0.47 in test [2] (first compound 1.28 µM); 0.745 in test [3] (first compound 0.0128 µM); 0.626 in test [3] (first compound 0.128 µM); 0.587 in test [3] (first compound 1.28 µM).
